Earlier results on one compound are cited in patent US11267839B2, “Crystalline forms of LNT” (GLYCOM A/S, priority 2015, dated 2022).

For this series the following is noted: prior-art crystalline LNT from aqueous ethanol, after drying.

For `CC(=O)N[C@H]1[C@H](O[C@H]2[C@@H](O)[C@@H](CO)O[C@@H](O[C@H]3[C@H](O)[C@@H](O)C(O)O[C@@H]3CO)[C@@H]2O)O[C@H](CO)[C@@H](O)[C@@H]1O[C@@H]1O[C@H](CO)[C@H](O)[C@H](O)[C@H]1O` (stereo partly shown) [LNT, Galpβ1-3GlcNAcpβ1-3Galpβ1-4Glc], the “weight taken back when stored in air (hygroscopic)” value is listed as “around 8 % of its weight”.
